Results published in patent US20250154180A1, “CRK-LIKE (CRKL) ADAPTOR PROTEIN INHIBITORS AND METHODS OF MAKING AND USING THE SAME” (Rutgers, The State University of New Jersey, priority 2022, published 2025).

Experiments:
[1] = system: breast cancer cells (MCF7, MDA-MB-453, MDA-MB-231, MDA-MB-231-GFP-LUC, Hs578t, MDA-MB-468); assay: MTT assay, breast cancer cell lines (TNBC and non-TNBC); type: cell-based; conditions: 72 h, three days after treatment
Experimental: Peripheral blood mononuclear cells (PBMCs, line with the symbol □) were used to determine the specificities of the cytotoxic effects of Pomiferin. The survival curve of PBMC-average is from four different healthy donors. Cells (1×10^3−3×10^3) were plated in 96-well plates, and cell growth was determined by MTT assay three days after cells were treated with Pomiferin at the indicated doses.
(§1) MTT assay—The MTT assay was used to detect cell proliferation. Briefly, cells were plated in a 96-well plate at a density of 50,000 cells/well in 200 μl of culture medium with candidate drugs to be tested (DMSO as a negative control). The treated cells were incubated for four hours a 37° C. with a 5% CO2 incubator to allow dark crystals to form at the bottom of the wells. After culturing for 48 hours, 10 ml of MTT reagent was added to each well and mixed gently for one minute. After aspirating the culture medium from each well, 100 μl of crystal dissolving solution was added to each well and incubated for 10 minutes at RT. The signal was quantified by measuring the absorbance in each sample at 570 nm using a microplate reader.

[2] = system: CD147-CAR-NK killing in BXPC3 cells; assay: Cr51 release assay, CD147-CAR-NK killing of BXPC3; type: cell-based; conditions: 1 uM overnight
Experimental: (§2) In this example, activity of NC5 was evaluated for PBNK and CD147-CAR-NK killing in BXPC3 cells. PBNK or CD147-CAR-NK cells were incubated with 1 uM NC5 overnight, then cells were harvested for Cr51 release assay to check cell cytotoxicity. […] The star symbol indicates the significance of vehicle vs. NC5 of the indicated E:T ratios. *p<0.05, **p<0.01, n=3.

[3] = system: CrkL phosphorylation by Ab1; assay: in vitro kinase assay (CrkL phosphorylation by Ab1, western blot); type: biochemical; conditions: 40 μM candidate drug; compared to Gleevec positive control
Experimental: The expression of both CrkL and phosphor-CrkL in the negative control was arbitrarily set as “1”, and other treatments were relatively compared with the negative control. The pCrkL and CrkL were set as the phosphorylation ratio, while the kinase inhibition efficiency was set as (1−pCrkL/CrkL)×100%.
in vitro Kinase Assay—An in vitro kinase assay was conducted to detect CrkL phosphorylation by Ab1 and to determine whether candidate drugs identified in the AlphaScreen assays could inhibit phosphorylation. […] The pTyr207 antibody detected the level of phosphorylated CrkL. […]
To further verify the pCrkL inhibitor, a kinase assay was designed to evaluate the specificity of positive hits. […] The decreased amount of pCrkL can be detected and quantified by this kinase assay. […]
In total, ten candidate drugs (five that bind to Ab1 and five that bind to CrkL) were verified by the in vitro kinase inhibition assay followed by thermal shift analysis. […] For phosphorylated CrkL detection, only the phosphorylation of Tyr207 was specifically detected by the anti-CrkL phosphorylation antibodies (FIG. 3B). […]

[4] = system: PBNK killing in BXPC3 cells; assay: Cr51 release assay, PBNK killing of BXPC3; type: cell-based; conditions: 1 uM overnight
Experimental: as §2

Sk-Hep1 tumor = assay: HCC Sk-Hep1 xenograft model; type: in vivo, NSG mice
Description: To further test whether the tumor growth inhibition effect of NC5 applied to other solid tumors, the HCC-Sk-Hep1cell line and PDAC-BXPC3 cell line xenograft models were used. Subcutaneous injection of 1.5×10^6 SK-Hep1 or BXPC3 cells in NSG mice, Six-ten days after tumor cell injection, the palpable tumor in NSG mice was confirmed.
To test the effects of the disclosed compounds on the xenograft mouse models, the HCC-Sk-Hep1 cell line xenograft model in NSG mice and 4T1-Luc orthotopic syngeneic breast tumor model in Balb/c mice was used. After confirming the palpable tumor in NSG or Balb/c mice. […] Compound III is referred to as “NC5-140-1” and Compound I is referred to as “NC5-140-2” in FIGS. 11A-11C.

[5] = system: hematopoietic cancer cell lines (K562, NK92-MI, Daudi, KHYG-1); assay: MTT assay, hematopoietic cancer cell lines; type: cell-based; conditions: five M Pomiferin for three days; compared with MDA-MD-231-LUC
Experimental: as §1, with “After culturing for 48 hours, 10 ml of MTT reagent was added to each well and mixed gently for one minute.” left out
To further test the inhibitory specificity of Pomiferin for specific breast cancer cell lines, The survival percentage was compared between different hematopoietic cancer cell lines and healthy PBMCs.

HCC HepG2 cells = assay: MTT proliferation assay, HepG2; type: cell-based; conditions: 48 hours
Experimental: as §1

**Q.** What does the source list for `CC(C)=CCc1c2c(c3occ(-c4ccc(O)c(O)c4)c(=O)c3c1O)C=CC(C)(C)O2` [Pomiferin, 3′,4′,5-Trihydroxy-6″,6″-dimethyl-6-(3-methylbut-2-en-1-yl)-6″H-pyrano[2″,3″:7,8]isoflavone]?
**A.** IC50 [1]: 1300 to 3600 nM; CD147-CAR-NK killing (Cr51 release) [2]: increased; kinase inhibition effect (CrkL phosphorylation) [3]: comparable results similar to the kinase inhibition effect seen with Gleevec; PBNK killing (Cr51 release) [4]: increased; tumor growth (Sk-Hep1 tumor; Pomiferin administered orally, two-group study): suppressed; tumor growth (Sk-Hep1 tumor; four-group study, 5.0 μg/g oral gavage): inhibit tumor growth; median survival (Sk-Hep1 tumor; four-group study, 5.0 μg/g oral gavage, vehicle 26 days): 34 days; tumor sizes before day 25 of inoculation (Sk-Hep1 tumor; four-group study, administered orally): no significant difference in tumor sizes; median survival, fold longer than vehicle control (Sk-Hep1 tumor; two-group study): 1.54 fold; median survival (Sk-Hep1 tumor; two-group study, 5.0 μg/g oral, vehicle 24 days): 37 days; sensitivity to Pomiferin (survival percentage, MTT) [5]: more resistant to Pomiferin inhibition; concentration at which HepG2 cell proliferation starts to be significantly inhibited (HCC HepG2 cells): one
